Laboratory results reported in patent US11643421B2, “Process for the preparation of tricyclic PI3K inhibitor compounds and methods for using the same for the treatment of cancer” (priority 2015, dated 2023).
Where two headings read alike, the source gives them in different places.

Legend:
[1] = Plasma protein binding (PPB %); type: in vitro ADME; settings: dog
Method: The hepatocyte stability of compound IIIat was evaluated across preclinical species. Certain in vivo pharmacokinetic parameters were also evaluated. […] Male Sprague-Dawley rats, female CD-1 mice, male cynomolgus monkeys and beagle dogs were dosed intravenously with 1 mg/kg of compound IIIat prepared in 60% PEG400/10% Ethanol. Compound IIIat was administered orally (PO) at the indicated dose in 0.5% methylcellulose with 0.2% Tween 80 (MCT).

[2] = Phase I dose-escalation study, plasma pharmacokinetics; type: in vivo, human; settings: for concentration at 15 day: read-out: Cmin (μM), Mean; for AUC(0-t): read-out: AUC0-24 (μM*hr), Mean; for AUC(0-inf): read-out: AUCinf (μM*hr), Mean
Method: Plasma samples for pharmacokinetic (“PK”) analysis were collected on day 1 and day 8 or day 15 of cycle 1. Fluorodeoxyglucose positron emission tomography (“FDG-PET”) was performed at baseline and on-treatment.
Dosing times may have been adjusted to accommodate for time shifts from the home administration schedule (e.g., for clinic visits with PK sampling or traveling), but times were to be adjusted by no more than 4 hours at a time.
For administration under fasted conditions, patients fasted overnight for at least 8 hours before dosing and 2 hours after dosing.
For Cohorts 1-6 (2-30 mg), the single dose on Cycle 1, Day 1 was followed by a 7 day washout-period, after which continuous once daily dosing, for 28 consecutive days, was started on Day 8. Blood samples for Cohorts 1-6 were collected on Day 15 for PK analysis.
All plasma concentration-time data collected in Cycle 1 were analyzed using WinNonlin® (Version 6.4, Pharsight Corp, Mountain View, Calif.) to estimate PK parameters, which included but were not limited to AUC0-last (where AUC refers to the area under the concentration-time curve) and/or AUCinf, Cmax, Cmin, tmax, half-life, CL/F, and accumulation ratio. Estimates for each PK parameter and summary statistics (mean, standard deviation, coefficient of variation, median, minimum, and maximum) were tabulated by dose level and schedule. Nominal time data were used in the analysis, and the linear up/log down trapezoidal method was used for calculating AUC.

[3] = biological target: MST1 (Homo sapiens, UniProt Q13043); experiment: biochemical; settings: read-out: % inhib
MST1, sequence (Q13043 whole entry): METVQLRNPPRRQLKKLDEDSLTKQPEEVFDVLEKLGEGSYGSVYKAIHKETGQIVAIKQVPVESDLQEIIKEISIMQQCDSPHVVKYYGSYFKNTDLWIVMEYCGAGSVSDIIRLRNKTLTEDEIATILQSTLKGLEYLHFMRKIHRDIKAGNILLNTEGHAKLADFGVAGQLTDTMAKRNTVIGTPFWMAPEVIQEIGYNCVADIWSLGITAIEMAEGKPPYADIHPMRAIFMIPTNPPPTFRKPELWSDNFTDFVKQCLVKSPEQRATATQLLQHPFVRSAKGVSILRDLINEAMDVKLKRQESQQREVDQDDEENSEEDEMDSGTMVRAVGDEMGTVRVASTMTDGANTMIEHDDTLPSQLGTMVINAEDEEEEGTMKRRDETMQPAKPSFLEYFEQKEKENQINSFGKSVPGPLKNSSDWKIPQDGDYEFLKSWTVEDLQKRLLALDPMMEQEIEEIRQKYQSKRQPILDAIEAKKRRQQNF

[4] = biological target: EphA4 (Homo sapiens, UniProt P54764); experiment: biochemical; settings: read-out: % inhib
EphA4, sequence (P54764 20-986, species assumed): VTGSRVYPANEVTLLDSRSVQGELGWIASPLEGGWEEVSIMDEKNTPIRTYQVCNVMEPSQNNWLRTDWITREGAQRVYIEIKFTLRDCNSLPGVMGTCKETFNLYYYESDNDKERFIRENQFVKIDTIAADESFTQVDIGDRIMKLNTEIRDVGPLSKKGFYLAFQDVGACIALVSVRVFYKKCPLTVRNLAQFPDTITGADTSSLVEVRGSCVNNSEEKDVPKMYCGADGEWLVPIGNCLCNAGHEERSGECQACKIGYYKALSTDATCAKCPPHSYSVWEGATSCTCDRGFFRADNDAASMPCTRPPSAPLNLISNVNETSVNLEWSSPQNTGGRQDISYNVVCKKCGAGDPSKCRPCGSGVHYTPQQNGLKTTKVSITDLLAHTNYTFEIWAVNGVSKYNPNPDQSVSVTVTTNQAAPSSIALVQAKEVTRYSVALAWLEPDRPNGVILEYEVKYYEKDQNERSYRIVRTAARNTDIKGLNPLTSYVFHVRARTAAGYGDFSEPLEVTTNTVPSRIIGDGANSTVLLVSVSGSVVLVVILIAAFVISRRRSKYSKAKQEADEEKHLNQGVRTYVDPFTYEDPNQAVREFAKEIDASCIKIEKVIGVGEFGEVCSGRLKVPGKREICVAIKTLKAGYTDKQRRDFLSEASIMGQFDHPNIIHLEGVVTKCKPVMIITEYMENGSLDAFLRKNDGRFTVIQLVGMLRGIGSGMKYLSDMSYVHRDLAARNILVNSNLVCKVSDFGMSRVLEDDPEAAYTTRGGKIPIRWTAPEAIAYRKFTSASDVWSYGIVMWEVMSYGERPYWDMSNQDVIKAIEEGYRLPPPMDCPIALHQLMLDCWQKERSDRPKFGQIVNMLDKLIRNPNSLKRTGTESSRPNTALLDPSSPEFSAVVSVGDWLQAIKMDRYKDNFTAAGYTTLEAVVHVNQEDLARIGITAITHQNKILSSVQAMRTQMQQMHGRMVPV

[5] = biological target: ErbB4 (Homo sapiens, UniProt Q15303); experiment: biochemical; settings: read-out: % inhib
ErbB4, sequence (Q15303 26-1308): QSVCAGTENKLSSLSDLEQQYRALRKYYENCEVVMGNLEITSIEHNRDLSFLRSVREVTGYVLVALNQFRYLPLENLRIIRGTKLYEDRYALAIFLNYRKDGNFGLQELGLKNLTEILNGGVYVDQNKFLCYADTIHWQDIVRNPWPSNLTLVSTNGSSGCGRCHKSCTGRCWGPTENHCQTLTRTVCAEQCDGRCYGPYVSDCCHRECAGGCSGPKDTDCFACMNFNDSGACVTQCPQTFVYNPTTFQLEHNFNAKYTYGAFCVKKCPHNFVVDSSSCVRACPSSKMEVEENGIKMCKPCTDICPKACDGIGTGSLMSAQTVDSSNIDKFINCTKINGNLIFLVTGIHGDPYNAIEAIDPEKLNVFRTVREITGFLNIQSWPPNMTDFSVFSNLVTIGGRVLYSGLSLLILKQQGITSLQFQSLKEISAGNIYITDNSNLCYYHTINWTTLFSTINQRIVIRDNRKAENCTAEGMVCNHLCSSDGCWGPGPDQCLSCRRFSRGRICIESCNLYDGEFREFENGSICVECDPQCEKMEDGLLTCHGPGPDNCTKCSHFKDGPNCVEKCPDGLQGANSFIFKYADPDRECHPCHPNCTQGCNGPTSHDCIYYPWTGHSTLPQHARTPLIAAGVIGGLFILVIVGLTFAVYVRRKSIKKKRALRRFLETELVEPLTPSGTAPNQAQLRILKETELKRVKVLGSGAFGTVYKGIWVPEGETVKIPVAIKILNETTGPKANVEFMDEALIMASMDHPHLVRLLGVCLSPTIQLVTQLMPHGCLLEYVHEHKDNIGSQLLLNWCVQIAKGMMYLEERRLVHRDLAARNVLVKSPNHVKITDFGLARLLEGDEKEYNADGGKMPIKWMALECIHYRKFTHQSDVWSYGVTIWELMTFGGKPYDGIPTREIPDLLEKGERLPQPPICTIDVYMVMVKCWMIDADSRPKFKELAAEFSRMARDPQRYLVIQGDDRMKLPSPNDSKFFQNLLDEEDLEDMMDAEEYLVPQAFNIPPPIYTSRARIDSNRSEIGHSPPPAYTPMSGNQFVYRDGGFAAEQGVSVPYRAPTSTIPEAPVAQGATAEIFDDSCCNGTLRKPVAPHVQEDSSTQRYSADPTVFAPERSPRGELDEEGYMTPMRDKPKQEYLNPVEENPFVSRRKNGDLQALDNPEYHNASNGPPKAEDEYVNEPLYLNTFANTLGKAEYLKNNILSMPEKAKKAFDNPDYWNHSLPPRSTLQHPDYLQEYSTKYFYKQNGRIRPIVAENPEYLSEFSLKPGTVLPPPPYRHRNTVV

[6] = biological target: T1, human BCRP (Homo sapiens, UniProt Q9UNQ0); experiment: Transport assay in BCRP-MDCKII cell monolayers; type: in vitro ADME; settings: 2-hour incubation
T1 construct: host or cells: BCRP-MDCKII (canine kidney)
T1 sequence (Q9UNQ0 whole entry): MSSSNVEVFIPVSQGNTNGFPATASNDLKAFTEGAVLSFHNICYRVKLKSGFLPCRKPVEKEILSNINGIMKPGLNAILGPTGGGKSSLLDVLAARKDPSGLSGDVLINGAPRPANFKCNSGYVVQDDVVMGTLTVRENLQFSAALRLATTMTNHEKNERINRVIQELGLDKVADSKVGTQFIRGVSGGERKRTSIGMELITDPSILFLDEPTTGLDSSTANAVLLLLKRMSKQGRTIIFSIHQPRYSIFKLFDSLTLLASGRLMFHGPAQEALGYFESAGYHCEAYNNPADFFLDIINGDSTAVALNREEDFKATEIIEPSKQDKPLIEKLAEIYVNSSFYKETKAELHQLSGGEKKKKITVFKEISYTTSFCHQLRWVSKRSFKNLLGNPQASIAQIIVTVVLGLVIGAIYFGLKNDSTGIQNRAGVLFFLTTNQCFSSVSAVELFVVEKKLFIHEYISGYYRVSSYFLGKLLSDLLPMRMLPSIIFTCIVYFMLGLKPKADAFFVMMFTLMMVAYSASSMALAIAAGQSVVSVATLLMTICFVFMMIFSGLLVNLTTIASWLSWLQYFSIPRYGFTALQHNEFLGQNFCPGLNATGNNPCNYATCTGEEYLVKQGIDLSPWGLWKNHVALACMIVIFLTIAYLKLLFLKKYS
Method: MDR1-MDCKI cells were licensed from the NCI (National Cancer Institute, Bethesda, Md.) and Bcrp1-MDCKII, BCRP-MDCKII and Mdr1a-LLC-PK1 cells were obtained from the Netherlands Cancer Institute (Amsterdam. The Netherlands). […] The compound was dissolved in transport buffer consisting of Hank's balanced salt solution (HBSS) with 10 mM HEPES (Invitrogen Corporation, Grand Island, N.Y.). Lucifer Yellow (Sigma-Aldrich, St. Louis, Mo.) was used as the paracellular and monolayer integrity marker. […] The efflux ratio (ER) was calculated (Papp, B-A/Papp, A-B).

[7] = biological target: InsR (Homo sapiens, UniProt P06213); experiment: biochemical; settings: read-out: % inhib
InsR, sequence (P06213 28-1382, species assumed): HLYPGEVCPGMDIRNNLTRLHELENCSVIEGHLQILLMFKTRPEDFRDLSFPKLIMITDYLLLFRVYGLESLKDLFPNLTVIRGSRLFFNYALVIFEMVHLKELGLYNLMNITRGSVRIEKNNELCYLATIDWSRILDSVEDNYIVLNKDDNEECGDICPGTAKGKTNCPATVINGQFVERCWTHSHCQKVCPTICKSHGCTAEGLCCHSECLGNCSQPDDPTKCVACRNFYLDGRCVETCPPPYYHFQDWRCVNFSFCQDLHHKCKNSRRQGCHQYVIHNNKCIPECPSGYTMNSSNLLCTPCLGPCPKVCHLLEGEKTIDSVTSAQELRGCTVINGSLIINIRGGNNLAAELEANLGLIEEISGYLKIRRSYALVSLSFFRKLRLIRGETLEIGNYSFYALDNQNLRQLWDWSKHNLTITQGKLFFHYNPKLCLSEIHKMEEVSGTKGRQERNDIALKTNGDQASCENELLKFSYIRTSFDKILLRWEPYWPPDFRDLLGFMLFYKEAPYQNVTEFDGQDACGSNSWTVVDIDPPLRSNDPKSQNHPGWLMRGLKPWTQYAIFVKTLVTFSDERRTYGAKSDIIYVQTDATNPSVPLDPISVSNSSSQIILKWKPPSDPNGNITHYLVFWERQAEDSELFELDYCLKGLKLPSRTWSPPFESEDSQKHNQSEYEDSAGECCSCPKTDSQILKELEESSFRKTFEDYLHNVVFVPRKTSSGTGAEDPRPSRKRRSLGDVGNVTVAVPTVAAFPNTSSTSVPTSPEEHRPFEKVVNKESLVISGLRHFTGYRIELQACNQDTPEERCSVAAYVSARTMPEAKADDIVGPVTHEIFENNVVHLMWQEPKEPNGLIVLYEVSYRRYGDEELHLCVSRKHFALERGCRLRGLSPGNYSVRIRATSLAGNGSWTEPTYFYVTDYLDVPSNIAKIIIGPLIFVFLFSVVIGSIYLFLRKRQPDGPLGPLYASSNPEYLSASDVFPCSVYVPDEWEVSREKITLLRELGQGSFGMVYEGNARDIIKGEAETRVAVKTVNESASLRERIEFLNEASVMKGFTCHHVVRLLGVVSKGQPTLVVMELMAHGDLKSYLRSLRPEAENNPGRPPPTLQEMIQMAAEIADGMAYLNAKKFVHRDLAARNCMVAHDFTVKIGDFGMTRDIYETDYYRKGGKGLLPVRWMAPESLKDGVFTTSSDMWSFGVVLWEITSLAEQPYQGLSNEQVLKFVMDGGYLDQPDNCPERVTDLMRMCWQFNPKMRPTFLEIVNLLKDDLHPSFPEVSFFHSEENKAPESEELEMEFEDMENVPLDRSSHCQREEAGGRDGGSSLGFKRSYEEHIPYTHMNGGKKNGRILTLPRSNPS

[8] = human, plasma, oral, 2 mg once daily, multiple doses, Cycle 1 Day 15
[9] = human, plasma, oral, 4 mg once daily, multiple doses, Cycle 1 Day 15
[10] = human, plasma, oral, 8 mg once daily, multiple doses, Cycle 1 Day 15
[11] = human, plasma, oral, 15 mg once daily, multiple doses, Cycle 1 Day 15
[12] = human, plasma, oral, 20 mg once daily, multiple doses, Cycle 1 Day 15
[13] = human, plasma, oral, 45 mg once daily, multiple doses, Cycle 1 Day 8
[14] = human, plasma, oral, 65 mg once daily, multiple doses, Cycle 1 Day 8
[15] = human, plasma, 2 mg single oral dose, Cycle 1 Day 1
[16] = human, plasma, 4 mg single oral dose, Cycle 1 Day 1
[17] = human, plasma, 8 mg single oral dose, Cycle 1 Day 1
[18] = human, plasma, 15 mg single oral dose, Cycle 1 Day 1
[19] = human, plasma, 20 mg single oral dose, Cycle 1 Day 1
[20] = human, plasma, 30 mg single oral dose, Cycle 1 Day 1
[21] = human, plasma, 45 mg single oral dose, Cycle 1 Day 1
[22] = human, plasma, 65 mg single oral dose, Cycle 1 Day 1

CC1(C)OCCn2c1nc1c(N3CCOCC3)nc(-c3cnc(N)nc3)nc12 [GDC-0084, 5-(6,6-dimethyl-4-morpholino-8,9-dihydro-6H-[1,4]oxazino[3,4-e]purin-2-yl)pyrimidin-2-amine]
fraction unbound [1]: 0.34 | concentration at 15 day ([2]; 4 mg once daily, multiple doses, Cycle 1 Day 15): 0.0207 µM | CL/F (L/hr), Mean ([2]; 4 mg single oral dose, Cycle 1 Day 1): 4.87 L/h | concentration at 15 day ([2]; 8 mg once daily, multiple doses, Cycle 1 Day 15): 0.0301 µM | CL/F (L/hr), Mean ([2]; 8 mg single oral dose, Cycle 1 Day 1): 12.4 L/h | concentration at 15 day ([2]; 15 mg once daily, multiple doses, Cycle 1 Day 15): 0.0581 µM | concentration at 15 day ([2]; 20 mg once daily, multiple doses, Cycle 1 Day 15): 0.0635 µM | CL/F (L/hr), Mean ([2]; 20 mg single oral dose, Cycle 1 Day 1): 7.92 L/h | concentration at 15 day ([2]; 30 mg once daily, multiple doses, Cycle 1 Day 15): 0.155 µM | CL/F (L/hr), Mean ([2]; 30 mg single oral dose, Cycle 1 Day 1): 8.22 L/h | concentration at 15 day ([2]; 45 mg once daily, multiple doses, Cycle 1 Day 8): 0.206 µM | concentration at 15 day ([2]; 65 mg once daily, multiple doses, Cycle 1 Day 8): 0.271 µM | half-life ([2]; human, plasma, oral, across Cohorts 1-6 (2 to 30 mg), single dose, read-out: apparent terminal phase t1/2 (converted)): ~18.7 h | Cmax [2, 8]: 0.0331 µM | AUC(0-t) [2, 8]: 0.346 µM·h | concentration at 15 day [2, 8]: 0.00877 µM | Tmax ([2]; human, plasma, oral, 2 mg once daily, multiple doses, Cycle 1 Day 15, read-out: Tmax (hr), Median): 2 h | Cmax [2, 9]: 0.593 µM | AUC(0-t) [2, 9]: 0.833 µM·h | Tmax ([2]; human, plasma, oral, 4 mg once daily, multiple doses, Cycle 1 Day 15, read-out: Tmax (hr), Median): 2 h | Cmax [2, 10]: 0.0883 µM | AUC(0-t) [2, 10]: 1.16 µM·h | Tmax ([2]; human, plasma, oral, 8 mg once daily, multiple doses, Cycle 1 Day 15, read-out: Tmax (hr), Median): 2.5 h | Cmax [2, 11]: 0.156 µM | AUC(0-t) [2, 11]: 2.34 µM·h | Tmax ([2]; human, plasma, oral, 15 mg once daily, multiple doses, Cycle 1 Day 15, read-out: Tmax (hr), Median): 3 h | Cmax [2, 12]: 0.23 µM | AUC(0-t) [2, 12]: 2.87 µM·h | Tmax ([2]; human, plasma, oral, 20 mg once daily, multiple doses, Cycle 1 Day 15, read-out: Tmax (hr), Median): 2 h | Cmax ([2]; human, plasma, oral, 30 mg once daily, multiple doses, Cycle 1 Day 15): 0.332 µM | AUC(0-t) ([2]; human, plasma, oral, 30 mg once daily, multiple doses, Cycle 1 Day 15, n = 5): 5.67 µM·h | Tmax ([2]; human, plasma, oral, 30 mg once daily, multiple doses, Cycle 1 Day 15, read-out: Tmax (hr), Median): 2 h | Cmax [2, 13]: 0.544 µM | AUC(0-t) [2, 13]: 8.06 µM·h | Tmax ([2]; human, plasma, oral, 45 mg once daily, multiple doses, Cycle 1 Day 8, read-out: Tmax (hr), Median): 3.5 h | Cmax [2, 14]: 0.58 µM | AUC(0-t) [2, 14]: 9.01 µM·h | Tmax ([2]; human, plasma, oral, 65 mg once daily, multiple doses, Cycle 1 Day 8, read-out: Tmax (hr), Median): 3 h | half-life ([2]; human, plasma, po, 2 mg, 2 mg single oral dose, Cycle 1 Day 1, read-out: T1/2 (hr), Mean (converted)): 16.9 h | half-life ([2]; human, plasma, po, 4 mg, 4 mg single oral dose, Cycle 1 Day 1, read-out: T1/2 (hr), Mean (converted)): 21.8 h | half-life ([2]; human, plasma, po, 8 mg, 8 mg single oral dose, Cycle 1 Day 1, read-out: T1/2 (hr), Mean (converted)): 18.2 h | half-life ([2]; human, plasma, po, 15 mg, 15 mg single oral dose, Cycle 1 Day 1, read-out: T1/2 (hr), Mean (converted)): 18.1 h | half-life ([2]; human, plasma, po, 20 mg, 20 mg single oral dose, Cycle 1 Day 1, read-out: T1/2 (hr), Mean (converted)): 14.8 h | half-life ([2]; human, plasma, po, 30 mg, 30 mg single oral dose, Cycle 1 Day 1, read-out: T1/2 (hr), Mean (converted)): 22 h | AUC(0-t) [2, 15]: 0.21 µM·h | AUC(0-inf) [2, 15]: 0.365 µM·h | Tmax ([2]; human, plasma, 2 mg single oral dose, Cycle 1 Day 1, read-out: Tmax (hr), Median): 2 h | Cmax [2, 16]: 0.0359 µM | AUC(0-t) [2, 16]: 0.435 µM·h | AUC(0-inf) [2, 16]: 0.833 µM·h | Tmax ([2]; human, plasma, 4 mg single oral dose, Cycle 1 Day 1, read-out: Tmax (hr), Median): 3 h | Cmax [2, 17]: 0.0452 µM | AUC(0-t) [2, 17]: 0.509 µM·h | AUC(0-inf) [2, 17]: 0.974 µM·h | Tmax ([2]; human, plasma, 8 mg single oral dose, Cycle 1 Day 1, read-out: Tmax (hr), Median): 3 h | Cmax [2, 18]: 0.0912 µM | AUC(0-t) [2, 18]: 1.09 µM·h | AUC(0-inf) [2, 18]: 1.97 µM·h | Tmax ([2]; human, plasma, 15 mg single oral dose, Cycle 1 Day 1, read-out: Tmax (hr), Median): 2 h | Cmax [2, 19]: 0.159 µM | AUC(0-t) [2, 19]: 1.9 µM·h | AUC(0-inf) [2, 19]: 2.75 µM·h | Tmax ([2]; human, plasma, 20 mg single oral dose, Cycle 1 Day 1, read-out: Tmax (hr), Median): 2 h | Cmax [2, 20]: 0.174 µM | AUC(0-t) [2, 20]: 2.42 µM·h | AUC(0-inf) [2, 20]: 5.33 µM·h | Tmax ([2]; human, plasma, 30 mg single oral dose, Cycle 1 Day 1, read-out: Tmax (hr), Median): 2 h | Cmax [2, 21]: 0.234 µM | AUC(0-t) [2, 21]: 3.12 µM·h | Tmax ([2]; human, plasma, 45 mg single oral dose, Cycle 1 Day 1, read-out: Tmax (hr), Median): 3 h | Cmax [2, 22]: 0.255 µM | AUC(0-t) [2, 22]: 4.06 µM·h | Tmax ([2]; human, plasma, 65 mg single oral dose, Cycle 1 Day 1, read-out: Tmax (hr), Median): 2.5 h | Tmax ([2]; human, plasma, single oral dose, all cohorts, read-out: median Tmax): ~2 h | dose proportionality of Cmax and AUC0-24 ([2]; single and multiple doses, 2 mg to 65 mg once daily): approximately linear and dose proportional increase in Cmax and AUC0-24 | inhibition at 1 µM [3]: 5% | inhibition at 1 µM [4]: 3% | inhibition at 1 µM [5]: 7% | Papp A→B at 2 h, 5 μM [6]: 23.2 ± 5.4 ×10⁻⁶ cm/s | Papp B→A at 2 h, 5 μM [6]: 16 ± 1.1 ×10⁻⁶ cm/s | inhibition at 1 µM [7]: 6%
